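Cultured in 96-well plates, cells were exposed to test compound for 48 hours across five concentrations. At the GI50, growth is halved. TGI denotes the concentration required for complete inhibition of growth.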 Where a SMILES comes first, the peptide text is derived from it.
Experiments:
Test in all cases: NCI-60 cell line screen, 48 h
SF-295 CNS = system: SF-295 CNS
SW-620 colon = system: SW-620 colon
IGROV1 ovarian = system: IGROV1 ovarian
UO-31 renal = system: UO-31 renal
CAKI-1 renal = system: CAKI-1 renal
HS 578T breast = system: HS 578T breast
UACC-62 melanoma = system: UACC-62 melanoma
DU-145 prostate = system: DU-145 prostate
MALME-3M melanoma = system: MALME-3M melanoma
NCI-H460 lung = system: NCI-H460 lung

| Structure (SMILES) | TGI (SF-295 CNS) | TGI (SW-620 colon) | TGI (IGROV1 ovarian) | TGI (UO-31 renal) | TGI (CAKI-1 renal) | TGI (HS 578T breast) | TGI (UACC-62 melanoma) | TGI (DU-145 prostate) | TGI (MALME-3M melanoma) | TGI (NCI-H460 lung) | GI50 (MALME-3M melanoma) |
| --- | --- | --- | --- | --- | --- | --- | --- | --- | --- | --- | --- |
| CC1C(c2ccc(F)cc2)c2cc3c(cc2OC1N1CCCC1)OCO3 (stereo not given) | > 100 µM | > 100 µM | > 100 µM | > 100 µM | 58.4 µM | 54.8 µM | > 100 µM | > 100 µM |  |  |  |
| CNC(=S)/C(=N\Nc1nc[nH]c1C(N)=O)C(N)=S | 41.6 µM | > 92 µM | > 61 µM | 18.3 µM | > 94.4 µM | > 81.8 µM | > 92.8 µM | 34.9 µM | > 54.8 µM | > 100 µM |  |
| CCN1CC2=C(N=c3s/c(=C\c4ccc(Cl)cc4)c(=O)n3C2c2ccc(Cl)cc2)/C(=C/c2ccc(Cl)cc2)C1 (stereo not given) | > 100 µM | > 100 µM | > 100 µM | > 100 µM | > 100 µM | > 100 µM | > 100 µM | > 100 µM | > 100 µM | > 100 µM |  |
| CCN(CC)c1ccc(/C=C(\C#N)c2nc(N)nc(N3N=C(C)CC3(C)C)n2)cc1 | 49.7 µM | > 100 µM | 34.2 µM | 55.4 µM | 28.4 µM | 11.4 µM | > 100 µM | 29.3 µM | 41 µM | 44.5 µM |  |
| O=c1c(O)c(-c2ccc(O)cc2O)oc2cc(O)cc(O)c12 | > 100 µM | > 100 µM | > 100 µM | > 100 µM | > 100 µM | > 100 µM |  | > 100 µM | > 100 µM | > 100 µM |  |
| O=c1[nH]c2ccc(C(F)(F)F)cc2nc1-c1ccccc1 | > 100 µM | > 100 µM | > 100 µM |  | > 100 µM | > 100 µM | > 100 µM | > 100 µM | > 100 µM | > 100 µM |  |
| CSc1ccc2c(cc1=O)[C@@H](NC(C)=O)CCc1cc(O)c(O)c(O)c1-2 | 31.2 µM | > 100 µM | 32.4 µM | 42.8 µM | > 100 µM |  | > 100 µM | > 100 µM | > 100 µM | 36.2 µM |  |
| O=c1c2ccccc2nc2n1NC(c1c(Cl)cccc1Cl)N2c1cccc(Cl)c1 (stereo not given) | > 100 µM | 14.3 µM | 22.4 µM | 7.39 µM | 47.2 µM | > 100 µM | 22.9 µM | > 100 µM | 29.7 µM | 34.6 µM |  |
| O=C(O)CC(C(=O)O)c1ccccc1[N+](=O)[O-] (stereo not given) | > 100 µM | > 100 µM | > 100 µM | > 100 µM | > 100 µM | > 100 µM | > 100 µM | > 100 µM | > 100 µM | > 100 µM |  |
| CCN(CC)C(=S)SS(=O)(=O)c1ccccc1C(=O)O | > 100 µM | > 100 µM | > 100 µM | > 100 µM | > 100 µM | > 100 µM | > 100 µM | > 100 µM | > 100 µM | > 100 µM |  |
| COC(CN(C)C(=O)C(C)NC(=O)c1ccccc1)OC (stereo not given) | > 100 µM | > 100 µM | > 100 µM |  | > 100 µM | > 100 µM | > 100 µM | > 100 µM | > 100 µM | > 100 µM |  |
| Cc1[nH]c2ncn3nc(C(Cl)(Cl)Cl)nc3c2c1Cc1ccccc1 | > 100 µM | > 100 µM | > 100 µM | 23.3 µM | > 100 µM | > 100 µM | > 100 µM | > 100 µM | > 100 µM | > 100 µM |  |
| Cc1ccc(S(=O)ON2CCC(C(=O)O)(c3ccccc3)CC2)cc1 (stereo not given) | > 100 µM | > 100 µM | > 100 µM | > 100 µM | > 100 µM | > 100 µM | > 100 µM | > 100 µM | > 100 µM | > 100 µM |  |
| Clc1ccc(-c2nn3c(CCCCCCCCc4nnc5sc(-c6ccc(Cl)cc6)nn45)nnc3s2)cc1 | 46.6 µM | > 100 µM | > 100 µM | 29.4 µM | 46.1 µM | > 100 µM | > 100 µM | > 61.4 µM | > 90.4 µM | > 100 µM |  |
| COc1ccc2c(c1)C(N)CC2=O (stereo not given) | > 100 µM | > 100 µM | > 100 µM | > 100 µM | > 100 µM | > 100 µM | > 100 µM | > 100 µM |  |  |  |
| C=C1C(=O)O[C@@H]2[C@H]3O[C@]3(C)CCC=C(C)CC[C@@H]12 | 83.2 µM | 34.5 µM | 52.4 µM | 91.9 µM | 22.5 µM |  | 37.7 µM |  | 25.3 µM | 56.4 µM |  |
| CCOC(=O)CN1CCNCCN(CC(=O)OCC)CCNCC1 | > 100 µM |  | > 100 µM | > 100 µM | > 100 µM | > 100 µM | > 100 µM | > 100 µM |  | > 100 µM |  |

| Structure (SMILES) | TGI (SF-295 CNS) | TGI (SW-620 colon) | TGI (IGROV1 ovarian) | TGI (UO-31 renal) | TGI (CAKI-1 renal) | TGI (HS 578T breast) | TGI (UACC-62 melanoma) | TGI (DU-145 prostate) | TGI (MALME-3M melanoma) | TGI (NCI-H460 lung) | GI50 (MALME-3M melanoma) |
| --- | --- | --- | --- | --- | --- | --- | --- | --- | --- | --- | --- |
| O=C(NN=C1CCN(Cc2ccccc2)CC1)C(O)(c1ccccc1)c1ccccc1 | > 100 µM | > 100 µM | > 100 µM | > 100 µM |  | > 100 µM | > 100 µM | > 100 µM | > 100 µM |  |  |
| CC1NC(=O)CNC(=O)CNC(=O)C(Cc2ccc(O)cc2)NC(=O)C(C(C)C)NC(=O)C(C)NC1=O (stereo not given) (cyclo(GGAAVY); configuration not given here) | > 100 µM | > 100 µM | > 100 µM | > 100 µM | > 100 µM |  | > 100 µM |  | > 100 µM | > 100 µM | > 100 µM |
| C=C[C@@H]1OC(=O)O[C@H]1CO | > 100 µM | > 100 µM | > 100 µM | > 100 µM |  | > 100 µM | > 100 µM | > 100 µM | > 100 µM |  |  |
| CCN(CC)CCn1c(C(C)(C)C)nc2ccccc21 | > 100 µM | > 100 µM | > 100 µM | > 100 µM | > 100 µM |  | > 100 µM | > 100 µM | > 100 µM | > 100 µM |  |
| COc1ccc2[nH]c(CCNC(=O)c3cc([N+](=O)[O-])cc([N+](=O)[O-])c3)cc2c1 |  | > 100 µM | > 100 µM | > 100 µM | > 100 µM | > 100 µM | > 100 µM | > 100 µM | > 100 µM | > 100 µM |  |
| COc1ccc(/C=C2\C=Cc3ccccc32)cc1OC | > 100 µM | > 100 µM | > 100 µM |  | > 100 µM | 89.6 µM | > 100 µM | > 100 µM | > 100 µM | > 100 µM |  |
| CC1=C2C(O)C(C(C)C(=O)NCC(C)C)CCC2(C)C=CC1=O (stereo not given) | > 100 µM | > 100 µM | > 100 µM | > 100 µM | > 100 µM |  | > 100 µM |  |  | > 100 µM |  |
| CSC(SC)=C1CC(=O)Nc2ccccc2C1=O | > 100 µM |  | > 100 µM | > 100 µM | 94.1 µM | > 100 µM | > 100 µM | > 100 µM | > 100 µM | > 100 µM |  |
| NC(N)=NCCCC(N=c1c2ccccc2n(O)c2ccccc12)C(=O)O (stereo not given) | > 100 µM | > 100 µM | > 100 µM | > 100 µM |  |  | > 100 µM |  | > 100 µM | > 100 µM |  |
| CSC1=N/C(=C\c2ccc(C)cc2)C(=O)N1CN1CCOCC1 | > 100 µM | > 100 µM | > 100 µM | > 100 µM |  | > 100 µM | > 100 µM | > 100 µM | > 100 µM |  |  |
| c1ccc2c(c1)ccc1nc(-c3ccc4c(c3)OCO4)c3c(c12)CCCC3 | > 100 µM | > 100 µM |  | 90.8 µM | > 100 µM | 28.5 µM | 82 µM |  | 63.2 µM | > 100 µM |  |
| NC(=O)NC(=O)c1cnccn1 | > 100 µM | > 100 µM |  | > 100 µM | > 100 µM |  | > 100 µM | > 100 µM | > 100 µM | > 100 µM |  |
| COc1c(CC=C(C)C)c(O)c(C(CC(C)C)c2c(O)c(C(C)=O)c(O)c3c2OC(C(C)(C)O)C3)c(O)c1C(C)=O (stereo not given) |  | > 12.5 µM | > 12.5 µM | > 12.5 µM | > 12.5 µM | > 12.5 µM | > 12.5 µM | > 12.5 µM | > 12.5 µM | > 12.5 µM |  |
| Cc1c(N2C(=O)/C(=C/C=C/c3ccccc3)N=C2c2ccccc2)c(=O)n(-c2ccccc2)n1C | 40 µM | 99.4 µM | 35.5 µM | 32.6 µM | > 100 µM |  | 32 µM | > 100 µM | 92.2 µM | > 100 µM |  |
| C[C@]12CC[C@@H]3c4ccc(O)cc4CC[C@H]3[C@@H]1C/C(=C\c1ccc([N+](=O)[O-])cc1)C2=O | > 100 µM | > 100 µM | > 100 µM | > 100 µM | > 100 µM |  | > 100 µM | > 100 µM | > 100 µM | > 100 µM |  |
| CC(=O)/C(C=Nc1c(C)n(C)n(-c2ccccc2)c1=O)=C(/C)O | > 100 µM | > 100 µM | > 100 µM | > 100 µM | > 100 µM |  | > 100 µM | > 100 µM | > 100 µM |  |  |
| Cc1ccc(-c2c(C#N)c(-c3ccc(Cl)cc3)c(C#N)c(=O)n2NS(=O)(=O)c2ccccc2)cc1 | > 100 µM | > 100 µM | > 100 µM |  | > 100 µM | > 100 µM | > 100 µM |  | > 100 µM | > 100 µM |  |
